One assay has as its target cytochrome P450 2D6 (Homo sapiens, UniProt P10635). The assay is described as follows: Inhibitory activity on cytochrome P450 2D6. The conditions noted are these: no significant inhibition. It counts as in vitro ADME.
A further assay concerns the target cytochrome P450 2C9 (Homo sapiens, UniProt P11712). Nature of the assay: Inhibitory activity on cytochrome P450 2C9. It counts as in vitro ADME. The settings on record: no significant inhibition.
Another assay concerns the target T1, cytochrome P450 1A2 (Homo sapiens, UniProt P05177).
T1 sequence (P05177 1-516): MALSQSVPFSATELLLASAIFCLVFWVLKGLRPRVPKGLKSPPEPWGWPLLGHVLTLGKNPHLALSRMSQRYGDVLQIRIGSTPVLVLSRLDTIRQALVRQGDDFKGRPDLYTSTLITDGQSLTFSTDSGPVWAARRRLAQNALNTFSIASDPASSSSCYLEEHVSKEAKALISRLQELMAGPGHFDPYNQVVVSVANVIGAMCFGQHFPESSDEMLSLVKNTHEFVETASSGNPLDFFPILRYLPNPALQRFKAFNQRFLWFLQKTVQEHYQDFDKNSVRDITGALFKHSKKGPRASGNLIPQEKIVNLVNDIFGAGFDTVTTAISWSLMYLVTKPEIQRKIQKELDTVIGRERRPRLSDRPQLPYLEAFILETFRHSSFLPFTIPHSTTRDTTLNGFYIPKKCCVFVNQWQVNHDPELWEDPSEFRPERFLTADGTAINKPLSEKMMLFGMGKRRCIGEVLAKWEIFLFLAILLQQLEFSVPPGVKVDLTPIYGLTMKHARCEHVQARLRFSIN
Nature of the assay: Inhibitory activity on cytochrome P450 1A2. It counts as in vitro ADME. The settings on record: no significant inhibition.

In the next assay the target is cytochrome P450 3A4 (Homo sapiens, UniProt P08684). Nature of the assay: Inhibitory activity on cytochrome P450 3A4. It counts as in vitro ADME. The settings on record: no significant inhibition.
cytochrome P450 3A4, sequence (P08684 whole entry): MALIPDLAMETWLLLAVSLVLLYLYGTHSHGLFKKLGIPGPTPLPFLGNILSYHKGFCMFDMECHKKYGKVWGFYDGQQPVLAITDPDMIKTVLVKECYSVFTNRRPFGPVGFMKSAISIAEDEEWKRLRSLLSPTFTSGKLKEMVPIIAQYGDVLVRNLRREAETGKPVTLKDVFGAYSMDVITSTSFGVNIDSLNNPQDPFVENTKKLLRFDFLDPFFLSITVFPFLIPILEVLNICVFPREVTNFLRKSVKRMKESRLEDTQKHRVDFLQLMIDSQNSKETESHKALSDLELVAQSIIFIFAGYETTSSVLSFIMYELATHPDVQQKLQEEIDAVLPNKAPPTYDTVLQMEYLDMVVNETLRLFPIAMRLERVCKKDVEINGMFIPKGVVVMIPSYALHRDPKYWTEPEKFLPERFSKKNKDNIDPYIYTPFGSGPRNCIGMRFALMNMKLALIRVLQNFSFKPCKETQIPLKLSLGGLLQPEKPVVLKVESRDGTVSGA
Another assay has as its target cytochrome P450 2C19 (Homo sapiens, UniProt P33261). The assay is described as follows: Inhibitory activity on cytochrome P450 2C19. It counts as in vitro ADME. The settings on record: no significant inhibition.
A further assay concerns NCI-H2228 cell line. The assay is described as follows: CellTiter-Glo cell proliferation inhibition on NCI-H2228 cell line. The conditions noted are these: Homo sapiens, NCI-H2228 cells, 5000 cells/well, 4 days drug treatment. It counts as cell-based. The gist of the method: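 NCI-H2228 cells, 5000/well in RPMI-1640 + 10% FBS, treated with compounds 2 h after seeding (0.5% DMSO final) for 4 days at 37° C. Viability by CellTiter-Glo luminescence; inhibition relative to DMSO control, IC50 from curve fit.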

The next assay concerns the target T2, Wild Type ALK kinase (Homo sapiens, UniProt Q9UM73).
T2 construct: purchased Sino-US Crown Bioscience, Inc. batch number ALK 20110607
Nature of the assay: HTRF KinEASE-TK assay, inhibitory activity on wild type ALK kinase. The settings on record: wild type ALK 1 ng/μl, substrate 1 μM, 30° C. 35 minutes, read-out: Inhibition on ALK kinases (wildtype), IC50. It counts as biochemical. An excerpt:
1. Inhibitory Activities of the Compounds of the Present Invention on Wild Type ALK Kinases
? experimental method ? HTRF KinEASE™-TK Assay kit from Cisbio company was used to detect inhibitory activities of the compounds on wildtype ALK kinases (wild type ALK kinases).
(§1) ? instrument ? Envision 2104 plate reader from PerKinElmer company.
? experiment material ? HTRF KinEASE™-TK Assay Kit (Cisbio company, catalog No. 62TK0PEC); Wild Type ALK kinase (produced by Sino-US Crown Bioscience, Inc., batch number ALK 20110607); DTT (Gibco BRL company, catalog No. 15508-012); MgCl2 (Sigma Aldrich company, catalog No. M-2670); ATP (Sigma Aldrich company, catalog No. A-7699); DMSO (AMRESCO company, catalog No. 0231); EDTA (AMRESCO company, catalog No. 0105); 96 wells plates (for diluting compounds) (CITOTEST company, catalog No. Ref36020096D); OptiPlate™-384 (White), PerkinElmer company, catalog No. P12-004)
(§2) ? experimental condition ? Compounds (the final concentration of DMSO was 1%), the reaction substrate (the final concentration was 1 μM), ATP (the final concentration was 2004), and Wildtype ALK kinases (the final concentration was 1 ng/μl) were mixed respectively in a final volume of 10 μl reaction system (containing 5 mM MgCl2, 1× Kinase buffer, and 1 mM DTT). The mixture was reacted at 30° C. for 35 minutes after shaking for 30 seconds. After completion of the reaction, each well was added with 5 μl Sa-XL665 and 5 μl TK Antibody-Eu(K), and placed in the dark for 60 minutes to end the reaction after uniform mixing. The data was read from PerkinElmer EnVision plate reader ([…]), the 665/615 ratio was calculated, and the data was analyzed.
(§3) ? tested samples ? Compounds from the examples.
(§4) ? data analysis ? Minimum 665/615 ratio (Rmin, 665/615 ratio under the condition that 10.4 μM positive control drug LDK-378 was added)
(§5) Maximum 665/615 ratio (Rmax, 665/615 ratio under the condition that no compound was added)
(§6) Tested 665/615 ratio (Rcompound, 665/615 ratio under the condition that a given concentration of compound was added) Inhibition rate (%)=[1−(Rcompound−Rmin)/(Rmax−Rmin)]×100
(§7) ? data processing ? IC50 of compounds was calculated by using XLfit program in Excel.

The target of another assay is T3, L1196M mutant ALK kinase (Homo sapiens, UniProt Q9UM73, L1196M).
T3 construct: purchased Sino-US Crown Bioscience, Inc. batch number ALKm_20110923
T3 sequence (Q9UM73 19-1620 L1196M): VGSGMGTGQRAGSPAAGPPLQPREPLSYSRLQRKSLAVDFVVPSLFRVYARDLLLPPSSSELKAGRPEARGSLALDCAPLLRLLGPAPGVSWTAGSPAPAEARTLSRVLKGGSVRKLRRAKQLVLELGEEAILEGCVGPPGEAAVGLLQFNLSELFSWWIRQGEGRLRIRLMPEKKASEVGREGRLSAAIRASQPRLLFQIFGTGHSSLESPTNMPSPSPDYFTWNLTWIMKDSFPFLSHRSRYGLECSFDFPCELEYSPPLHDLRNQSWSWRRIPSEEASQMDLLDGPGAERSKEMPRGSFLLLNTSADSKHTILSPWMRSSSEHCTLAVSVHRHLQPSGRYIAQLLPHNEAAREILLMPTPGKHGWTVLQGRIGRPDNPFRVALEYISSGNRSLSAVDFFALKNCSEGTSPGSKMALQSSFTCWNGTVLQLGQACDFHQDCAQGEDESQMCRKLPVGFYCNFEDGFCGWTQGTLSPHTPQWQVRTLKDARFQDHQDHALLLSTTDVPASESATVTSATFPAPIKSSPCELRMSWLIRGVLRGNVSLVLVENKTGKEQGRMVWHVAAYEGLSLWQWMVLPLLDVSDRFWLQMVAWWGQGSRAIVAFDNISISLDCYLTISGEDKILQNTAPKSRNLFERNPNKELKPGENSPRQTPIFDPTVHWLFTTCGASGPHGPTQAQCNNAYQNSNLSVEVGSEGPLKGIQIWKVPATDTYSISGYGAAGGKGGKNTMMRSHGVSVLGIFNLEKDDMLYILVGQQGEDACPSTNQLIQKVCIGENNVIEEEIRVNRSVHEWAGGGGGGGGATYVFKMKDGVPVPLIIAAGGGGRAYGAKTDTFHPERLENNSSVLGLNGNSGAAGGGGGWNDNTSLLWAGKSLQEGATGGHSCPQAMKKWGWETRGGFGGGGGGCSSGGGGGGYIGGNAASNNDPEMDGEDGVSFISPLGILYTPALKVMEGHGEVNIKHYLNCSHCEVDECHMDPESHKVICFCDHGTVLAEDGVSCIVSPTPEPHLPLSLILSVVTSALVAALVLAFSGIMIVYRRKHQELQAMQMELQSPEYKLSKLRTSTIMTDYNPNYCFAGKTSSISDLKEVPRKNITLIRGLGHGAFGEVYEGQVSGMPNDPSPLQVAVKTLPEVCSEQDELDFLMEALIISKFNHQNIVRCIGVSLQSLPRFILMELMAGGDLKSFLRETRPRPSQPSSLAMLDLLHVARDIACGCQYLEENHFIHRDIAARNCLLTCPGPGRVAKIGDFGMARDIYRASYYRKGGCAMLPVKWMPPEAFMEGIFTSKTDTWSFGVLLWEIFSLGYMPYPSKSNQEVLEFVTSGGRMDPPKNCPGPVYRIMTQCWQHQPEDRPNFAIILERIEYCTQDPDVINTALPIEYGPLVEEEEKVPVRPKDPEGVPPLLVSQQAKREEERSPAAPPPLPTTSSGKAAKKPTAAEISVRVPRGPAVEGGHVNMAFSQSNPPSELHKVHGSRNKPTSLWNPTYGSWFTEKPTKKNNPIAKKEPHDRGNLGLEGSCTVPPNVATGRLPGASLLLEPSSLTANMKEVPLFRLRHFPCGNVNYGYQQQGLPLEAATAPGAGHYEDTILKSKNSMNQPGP
The assay is described as follows: HTRF KinEASE-TK assay, inhibitory activity on L1196M mutant ALK kinase. It counts as biochemical. The settings on record: L1196M mutant ALK 1 ng/μl, substrate 1 μM, ATP 5 μM, 30° C. 35 minutes, read-out: Inhibition on ALK kinases (L1196M mutant), IC50.
Source text: 2. Inhibitory Activities of the Compounds of the Present Invention on L1196M Mutant ALK Kinases
? experimental method ? HTRF KinEASE™-TK Assay kit from Cisbio company was used to detect inhibitory activities of the compounds on L1196M mutant ALK kinases.
as §1
? experiment material ? HTRF KinEASE™-TK Assay Kit (Cisbio company, catalog No. 62TK0PEC); L1196M mutant ALK kinase (produced by Sino-US Crown Bioscience, Inc., batch number ALKm_20110923); DTT (Gibco BRL company, catalog No. 15508-012); MgCl2 (Sigma Aldrich company, catalog No. M-2670); ATP (Sigma Aldrich company, catalog No. A-7699, batch number 051M7014V); DMSO (AMRESCO company, catalog No. 0231); EDTA (AMRESCO company, catalog No. 0105); 96 wells plates (for diluting compounds) (CITOTEST company, catalog No. Ref36020096D); OptiPlate™-384 (White), PerkinElmer company, catalog No. P12-004)
as §2, with “5 μM),” for “2004),”, “L1196M mutant” for “Wildtype”
as §3, §4, §5, §6, §7
For orientation: TR-FRET usually uses a lanthanide donor and a delayed reading to cut background.

In another assay the test system is Karpas-299 cell line. Nature of the assay: CellTiter-Glo cell proliferation inhibition on Karpas-299 cell line. It counts as cell-based. The conditions noted are these: Homo sapiens, 96 h, Karpas-299 cells, 5000 cells/well, 4 days drug treatment. As for the experimental part:
4. Cell Proliferation Inhibitory Activities of the Compounds of the Present Invention on Karpas-299 Cell Line
? experimental method ? CellTiter-Glo® Luminescent Cell Viability Assay kit from Promega company was used to detect cell proliferation inhibitory activities of the compounds on Karpas-299 cell line.
? instrument ? Envision 2104 plate reader from PerKinElmer company; Vi-Cell XR cell counter from Beckman Counter company; MCO-18AIC CO2 incubator from SANYO company.
? experiment material ? CellTiter-Glo® Luminescent Cell Viability Assay Kit (Promega company, catalog No. G7573); Karpas-299 cell line (DSMZ, catalog No. ACC31); RPMI-1640 medium (HyClone company, catalog No. SH30809.01B); fetal bovine serum (FBS) (Gibco company, catalog No. 10099-141); PBS (HyClone company, catalog No. SH30256.01B); 96 wells cell culture plate (Corning company, catalog No. 3610); DMSO (AMRESCO company, catalog No. 0231); 96 wells plates (for diluting compounds) (CITOTEST company, catalog No. Ref36020096D);
? experimental condition ? Karpas-299 cells in exponential growth phase were collected and viable cells were counted by Vi-Cell XR cell counter. Cell suspension was adjusted to 62500 cells/ml with culture medium (RPMI-1640+10% FBS). 80 μl cell suspension was added into each well of 96 wells cell culture plate so that so that the final cell number of Karpas-299 cells was 5000 cells/well. The cells were cultivated in an incubator with an atmosphere of 37° C., 5% CO2 and 95% humidity for 2 hours and then each well was added with 20 μl compounds in RPMI-1640 medium solution (the final concentration of DMSO was 0.5%). 4 days after drug treatment, each well was added with 50 μl CellTiter-Glo solution which was previously thawed and equilibrated to room temperature, and mixed for 2 minutes with microplate shaker. After placing at room temperature for 10 minutes, luminescence reading value was measured with PerkinElmer Envision 2104 plate reader and the data was analyzed.
? tested samples ? Compounds of the examples.
Luminescence value of DMSO solvent control (Vvehicle control, which is the mean luminescence value from DMSO solvent control group)
Tested luminescence value (Vsample, which is the luminescence value from given concentration of compounds group) Inhibition rate (%)=(1−Vsample/Vvehicle control)×100
as §7
A general note: In ATP-based viability assays light output follows the ATP content of the culture.

pIC50: −log10 of the molar value. Bounds are passed on as bounds.

Usually pIC50 stands for the negative decadic logarithm of the IC50, by convention in mol/L.

cytochrome P450 2D6, sequence (P10635 whole entry): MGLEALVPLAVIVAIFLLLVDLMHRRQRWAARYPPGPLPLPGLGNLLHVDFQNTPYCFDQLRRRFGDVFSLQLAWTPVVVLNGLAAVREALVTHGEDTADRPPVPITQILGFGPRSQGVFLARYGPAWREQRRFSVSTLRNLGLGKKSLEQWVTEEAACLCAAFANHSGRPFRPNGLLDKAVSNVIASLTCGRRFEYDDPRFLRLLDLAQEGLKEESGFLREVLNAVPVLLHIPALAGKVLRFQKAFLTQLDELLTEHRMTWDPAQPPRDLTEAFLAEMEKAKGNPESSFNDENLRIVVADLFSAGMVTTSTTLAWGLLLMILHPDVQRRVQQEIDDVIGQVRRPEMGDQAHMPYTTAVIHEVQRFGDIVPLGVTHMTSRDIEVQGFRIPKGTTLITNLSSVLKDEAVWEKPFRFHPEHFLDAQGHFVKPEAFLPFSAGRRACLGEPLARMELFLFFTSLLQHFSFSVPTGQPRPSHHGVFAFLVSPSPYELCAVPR
cytochrome P450 2C9, sequence (P11712 whole entry): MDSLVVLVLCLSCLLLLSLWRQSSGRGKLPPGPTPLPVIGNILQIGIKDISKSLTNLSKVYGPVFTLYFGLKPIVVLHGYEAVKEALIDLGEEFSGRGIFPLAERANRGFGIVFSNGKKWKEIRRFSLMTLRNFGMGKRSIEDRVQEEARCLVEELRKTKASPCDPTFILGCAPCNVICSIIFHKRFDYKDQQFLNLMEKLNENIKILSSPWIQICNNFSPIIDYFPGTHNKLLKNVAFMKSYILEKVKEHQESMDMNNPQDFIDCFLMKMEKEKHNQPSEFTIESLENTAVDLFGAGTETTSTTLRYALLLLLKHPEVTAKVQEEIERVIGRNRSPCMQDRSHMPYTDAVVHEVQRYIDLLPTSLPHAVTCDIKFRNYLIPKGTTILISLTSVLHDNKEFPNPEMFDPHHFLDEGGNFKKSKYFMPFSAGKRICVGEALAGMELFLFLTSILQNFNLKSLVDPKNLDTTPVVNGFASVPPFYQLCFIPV
cytochrome P450 2C19, sequence (P33261 whole entry): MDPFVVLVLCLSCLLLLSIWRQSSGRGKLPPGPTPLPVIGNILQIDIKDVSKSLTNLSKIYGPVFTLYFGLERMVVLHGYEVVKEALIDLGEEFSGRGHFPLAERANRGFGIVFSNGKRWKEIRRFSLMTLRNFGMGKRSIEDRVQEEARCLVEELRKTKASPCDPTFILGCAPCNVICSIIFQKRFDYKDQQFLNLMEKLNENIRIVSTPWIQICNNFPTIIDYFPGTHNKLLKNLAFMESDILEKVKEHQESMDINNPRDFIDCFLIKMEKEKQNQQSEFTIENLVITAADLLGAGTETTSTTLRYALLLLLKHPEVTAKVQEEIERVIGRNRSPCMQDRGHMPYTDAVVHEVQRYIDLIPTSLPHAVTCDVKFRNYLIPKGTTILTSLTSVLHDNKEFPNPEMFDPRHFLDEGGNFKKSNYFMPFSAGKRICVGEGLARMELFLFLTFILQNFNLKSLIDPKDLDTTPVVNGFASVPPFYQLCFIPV
T2 sequence (Q9UM73 19-1620): as the sequence (Q9UM73 19-1620 L1196M) above, with M1178L counted along it

Turning to `Cc1cc(Nc2ncc(Cl)c(Nc3cn(C)nc3S(=O)(=O)C(C)C)n2)c(OC2CC2)cc1C1CCCN(C)C1` (stereo not shown) [Final product 60], the pIC50 was less than 5.00 at cytochrome P450 2D6; less than 5.00 against cytochrome P450 2C9; less than 5.00 at cytochrome P450 1A2; less than 5.00 on cytochrome P450 3A4; less than 5.00 against cytochrome P450 2C19; 7.55 in the assay with NCI-H2228 cell line (NCI-H2228, 96 h).
On to `Cc1cc(Nc2ncc(Cl)c(Nc3cn(C)nc3S(=O)(=O)C(C)C)n2)c(OC(C)C)cc1C1CCN(C)CC1` [Final product 80], for which the pIC50 at cytochrome P450 2D6 was less than 5.00; on cytochrome P450 2C9 it was less than 5.00; against cytochrome P450 1A2 it was less than 5.00; on Wild Type ALK kinase, 8.40; on L1196M mutant ALK kinase, 8.10; against cytochrome P450 3A4 it was less than 5.00. The compound further showed a pIC50 on cytochrome P450 2C19 of less than 5.00.
`CCN1CCC(c2cc(OC3CC3)c(Nc3ncc(Cl)c(Nc4cn(C)nc4S(=O)(=O)C(C)C)n3)cc2C)CC1` [Final product 114, 5-chloro-N^2-[2-cyclopropoxy-4-(1-ethylpiperidin-4-yl)-5-methylphenyl]-N^4-[1-methyl-3-(isopropylsulfonyl)-1H-pyrazol-4-yl]-pyrimidin-2,4-diamine]: the pIC50 against cytochrome P450 2D6 was less than 5.00; against cytochrome P450 2C9, less than 5.00; in the assay on Karpas-299 cell line it was 8.00; against cytochrome P450 1A2 it was less than 5.00; at cytochrome P450 3A4, less than 5.00; against cytochrome P450 2C19 it was less than 5.00. Also, the pIC50 in the assay with NCI-H2228 cell line (96 h) is 7.15.
As for `Cc1cc(Nc2ncc(Cl)c(Nc3cn(C)nc3S(=O)(=O)C(C)C)n2)c(OC2CC2)cc1C1CCN(C)CC1` [Final product 51], the pIC50 on cytochrome P450 2D6 was less than 5.00; on cytochrome P450 2C9, less than 5.00; at cytochrome P450 1A2, less than 5.00; at Wild Type ALK kinase, 8.70; on L1196M mutant ALK kinase, 8.40; against cytochrome P450 3A4, less than 5.00. On cytochrome P450 2C19, this compound gave a pIC50 of less than 5.00.
Regarding `CC(C)S(=O)(=O)c1nn(C)cc1Nc1nc(Nc2cc(F)c(C3CCN(C)CC3)cc2OC2CC2)ncc1Cl` [Final product 44], the pIC50 is less than 5.00 against cytochrome P450 2D6; less than 5.00 against cytochrome P450 2C9; less than 5.00 on cytochrome P450 1A2; 8.52 on Wild Type ALK kinase; 8.40 on L1196M mutant ALK kinase; less than 5.00 against cytochrome P450 3A4. This compound also had a pIC50 against cytochrome P450 2C19 of less than 5.00.

The record behind these values is patent US10023593B2, “ALK kinase inhibitor, and preparation method and uses thereof” (BEIJING PEARL BIOTECHNOLOGY LIMITED LIABILITY COMPANY, priority 2014, dated 2018).
